Entries after “also recorded” stand apart in the source; their conditions may differ.

Data set [1] has as its system orthotopic model of breast cancer. Set-up: method as in PMID 26626158. Particulars: orthotopic model of breast cancer in mice, identical experimental conditions for conjugate and free drug; cited from earlier work. An excerpt: In previous studies we investigated the cancer selectivity of tetra-branched peptides containing the sequence of human neurotensin, which we named NT4. We developed theranostic molecules for tumor imaging or therapy by coupling NT4 to different functional units or liposomes.

Data set [2] relates to NT4 binding to MCF-7 cells. Nature of the data set: Inhibition of NT4 binding by heparin or heparin binding proteins (flow cytometry), MCF-7. The format is cell-based, human. The conditions noted are these: 250 nM biotinylated NT4; heparin 20, 10 and 1 μg/ml or 1 μM Midkine or Apolipoprotein E4; 30 min, room temperature; Streptavidin-FITC. The method, then:
(§1) All experiments were performed using 2 × 10^5 MCF-7 or MDA-MB 231 cells in 96 well U-bottom plates. All dilutions were performed in PBS, containing 5 mM EDTA and 0.5% BSA. 10,000 events were evaluated in a BD FACS Canto II or a BD FACS Calibur (Becton Dickinson, NJ USA). The results were analyzed by FCS Express 6 Flow cytometry software.
(§2) Inhibition of NT4 binding by heparin was carried out incubating cells with 250 nM biotinylated NT4 and various concentrations (20 μg/ml, 10 μg/ml and 1 μg/ml) of heparin for 30 min at room temperature. Inhibition of NT4 binding by heparin binding proteins was carried out incubating cells with 250 nM biotinylated NT4 and 1 μM Midkine or Apolipoprotein E4 for 30 min at room temperature. Cells were finally incubated with 1 μg/ml Streptavidin-FITC.

Data set [3] deals with NT4 binding to MDA-MB 231 cells. Nature of the data set: Inhibition of NT4 binding by heparin or heparin binding proteins (flow cytometry), MDA-MB 231. The format is cell-based, human. The conditions noted are these: 250 nM biotinylated NT4; heparin 20, 10 and 1 μg/ml or 1 μM Midkine or Apolipoprotein E4; 30 min, room temperature; Streptavidin-FITC. The method, then:
as §1, §2

Data set [4] has as its system MCF-7 and MDA-MB 231 cells. Nature of the data set: Transporter-mediated efflux of Rho 123 by flow cytometry. The format is cell-based, human. The conditions noted are these: 1 μM Rho 123 for 10 minutes, washed, fluorescence monitored 0-120 minutes by flow cytometry. On the procedure: as §1
To analyze active cell drug export mechanisms, MCF-7 and MDA-MB 231 cells were exposed to 1 μM Rho 123 for 10 minutes, then washed twice with PBS-5 mM EDTA-[…] to remove excess of Rho 123, and fluorescence was monitored immediately (T0) and after 10, 20, 30, 45, 60, 90 and 120 minutes. Each step was followed by three washes in PBS-5 mM EDTA-0.5% BSA. P values were calculated using two-tailed Student's t-test (99% confidence interval) using Graph Pad Prism 5.03 software.

Data set [5] has as its system MDA-MB 231 human breast adenocarcinoma cells. Nature of the data set: Cytotoxicity (MTT growth inhibition) in MTX-resistant MDA-MB 231 cells. The format is cell-based. The conditions noted are these: MDA-MB 231, 5 × 10^3 cells per well, 6 days at 37°C, twice in triplicate (Figure 6: mean of six experiments ± SD). On the procedure:
(§3) MCF-7 human breast adenocarcinoma, MDA-MB 231 human breast adenocarcinoma, T-24 human bladder carcinoma, PANC-1 human pancreatic carcinoma, HT29 human colon adenocarcinoma, A375 human melanoma, HT-1376 human bladder carcinoma and OVCAR-3 human ovarian carcinoma cells were grown in their recommended media supplemented with 10% fetal calf serum, 200 μg/ml glutamine, 100 μg/ml streptomycin, 60 μg/ml penicillin, and maintained at 37°C, 5% CO2. MDA-MB 231 was maintained at 37°C without CO2. Cell lines were purchased from ATCC.
(§4) MCF-7 and MDA-MB 231 cells were plated at a density of 5 × 10^3 per well in 96-well microplates. […] Cell growth was analyzed after 6 days of incubation at 37°C. Growth inhibition was assessed by 3-(4,5-dimethylthiazol-2-yl)-2,5-diphenyltetrazolium bromide (MTT). Cytotoxicity of drug-conjugated NT4 was compared with that of the corresponding free drugs. The experiment was performed twice in triplicate. EC50 values were calculated by non-linear regression analysis using Graph Pad Prism 5.03 software.

The subject of data set [6] is T-24 human bladder carcinoma cells. The data set is described as follows: MTX cytotoxicity screening, T-24. The format is cell-based. The method, then:
as §3
(§5) MCF-7 and MDA-MB 231 cells were plated at a density of 5 × 10^3 per well in 96-well microplates. […] Cell growth was analyzed after 6 days of incubation at 37°C. Growth inhibition was assessed by 3-(4,5-dimethylthiazol-2-yl)-2,5-diphenyltetrazolium bromide (MTT). Cytotoxicity of drug-conjugated NT4 was compared with that of the corresponding free drugs. The experiment was performed twice in triplicate. EC50 values were calculated by non-linear regression analysis using Graph Pad Prism 5.03 software. Values from untreated controls gave 100% cell viability.

The subject of a further data set is MCF-7 cells. The data set is described as follows: Cytotoxicity with and without heparin, MCF-7. Particulars: MCF-7, 610 pM to 10 μM compound in the presence of 1 μM heparin, 6 days at 37°C, MTT. The format is cell-based, human. The method, then:
as §4

Data set [7] relates to A375 human melanoma cells. The data set is described as follows: MTX cytotoxicity screening, A375. It counts as cell-based. Particulars: A-375. The method, then: as §3, §5
Data set [8] relates to HT29 human colon adenocarcinoma cells. Nature of the data set: MTX cytotoxicity screening, HT29. The format is cell-based. Particulars: HT-29. On the procedure:
as §3, §5

For another data set, the system named is MDA-MB 231 cells. Nature of the data set: Cytotoxicity with and without heparin, MDA-MB 231. The format is cell-based, human. The conditions noted are these: MDA-MB 231, 610 pM to 10 μM compound in the presence of 1 μM heparin, 6 days at 37°C, MTT. On the procedure: as §4
For data set [9], the system named is MCF-7 human breast adenocarcinoma cells. The data set is described as follows: Cytotoxicity (MTT growth inhibition) in MTX-sensitive MCF-7 cells. It counts as cell-based. Particulars: MCF7, MCF-7, 5 × 10^3 cells per well, 6 days at 37°C, twice in triplicate (Figure 6: mean of six experiments ± SD). The method, then:
as §3, §4

Data set [10] deals with PANC-1 human pancreatic carcinoma cells. The data set is described as follows: MTX cytotoxicity screening, PANC-1. The format is cell-based. On the procedure:
as §3, §5

The test system of data set [11] is HT-1376 human bladder carcinoma cells. The data set is described as follows: MTX cytotoxicity screening, HT-1376. The format is cell-based. The method, then: as §3, §5
The test system of data set [12] is OVCAR-3 human ovarian carcinoma cells. Nature of the data set: MTX cytotoxicity screening, OVCAR-3. It counts as cell-based. The method, then: as §3, §5

As for `CC(=O)O[C@H]1C(=O)[C@@]2(C)[C@H]([C@H](OC(=O)c3ccccc3)[C@]3(O)C[C@H](OC(=O)[C@H](O)[C@@H](NC(=O)c4ccccc4)c4ccccc4)C(C)=C1C3(C)C)[C@]1(OC(C)=O)CO[C@@H]1C[C@@H]2O` [paclitaxel], the tumor regression result in data set [1] was “not achieved”.
Consider heparin, for which, in data set [2], the “inhibition of NT4 binding to MCF-7 cells” value is recorded as “inhibited; also recorded: abolished”. The “inhibition of NT4 binding to MDA-MB 231 cells” value in data set [3] is recorded as “inhibited; also recorded: abolished”.
Regarding “Apolipoprotein E4: heparin binding protein”, the “inhibition of NT4 binding to MCF-7 cells” value in [2] is listed as “inhibited”. Besides, in data set [3], the “inhibition of NT4 binding to MDA-MB 231 cells” value is “inhibited”.
In the case of `COC(=O)c1ccccc1-c1c2ccc(=N)cc-2oc2cc(N)ccc12` [Rho 123, Rhodamine 123], the “drug efflux (Rho 123 signal decrease) compared between cell lines” value in data set [4] was “comparable in the two cell lines”.
As for `CN(Cc1cnc2nc(N)nc(N)c2n1)c1ccc(C(=O)N[C@@H](CCC(=O)O)C(=O)O)cc1` [MTX, methotrexate], the half-maximal effective concentration (EC50) in data set [5] turned out to be 506 nM; in data set [6], 80.7 nM; in data set [7] it was 33.7 nM; in [8], 60.9 nM; in data set [9] it was 25.8 nM; in [10], 23.4 nM. Further, the concentration for a half-maximal effect (EC50) in data set [11] stood at 171 nM; in data set [12] it was 89.5 nM. The “effect of heparin on cytotoxicity” value in the data set with MCF-7 cells and in the data set with MDA-MB 231 cells was “did not affect” throughout.

B1: Midkine: heparin binding protein (protein, UniProt P21741 21-143, looked up)
Midkine: VAKKKDKVKKGGPGSECAEWAWGPCTPSSKDCGVGFREGTCGAQTQRIRCRVPCNWKKEFGADCKYKFENWGACDGGTGTKVRQGTLKKARYNAQCQETIRVTKPCTPKTKAKAKAKKGKGKD
For B1, in data set [2], the “inhibition of NT4 binding to MCF-7 cells” value is given as “inhibited”. Moreover, the “inhibition of NT4 binding to MDA-MB 231 cells” value in data set [3] is recorded as “inhibited”.

(Values after publication PMC5652693, “Coupling to a cancer-selective heparan-sulfate-targeted branched peptide can by-pass breast cancer cell resistance to methotrexate” (Oncotarget, 2017).)
